We go through 14 compounds from US9169254B2, “Spiroimidazolone derivative” (Chugai Seiyaku Kabushiki Kaisha, priority 2009, dated 2015).

The target of this assay is T1, human PTH1 receptor (Homo sapiens, UniProt Q03431).
T1 sequence (Q03431 27-593): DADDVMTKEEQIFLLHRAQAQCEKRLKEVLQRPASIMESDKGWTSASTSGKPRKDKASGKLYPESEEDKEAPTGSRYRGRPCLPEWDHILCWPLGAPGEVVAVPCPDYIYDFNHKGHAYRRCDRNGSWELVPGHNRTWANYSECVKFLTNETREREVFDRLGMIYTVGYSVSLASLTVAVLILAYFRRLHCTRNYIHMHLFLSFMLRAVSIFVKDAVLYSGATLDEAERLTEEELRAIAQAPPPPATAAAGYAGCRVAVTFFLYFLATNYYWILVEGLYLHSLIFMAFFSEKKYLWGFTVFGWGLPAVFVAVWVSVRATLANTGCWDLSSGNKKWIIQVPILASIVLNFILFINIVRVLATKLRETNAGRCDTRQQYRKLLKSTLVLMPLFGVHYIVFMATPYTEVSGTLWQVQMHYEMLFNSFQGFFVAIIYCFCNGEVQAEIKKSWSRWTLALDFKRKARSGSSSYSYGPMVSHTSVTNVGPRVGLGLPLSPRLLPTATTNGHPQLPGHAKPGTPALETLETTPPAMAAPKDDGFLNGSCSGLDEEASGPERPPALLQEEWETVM
Briefly: In vitro cAMP signal activity in HKRK-B7 cells (LLC-PK1 cells overexpressing the human PTH1 receptor). The class given is cell-based. The following applies: HKRK-B7 cells; compound at 1×10^−3 M; cAMP produced as percentage of that produced by hPTH(1-34) at 100 nM.
As for `Cc1cc(N2C(=O)CCC2CO)ccc1/C=C/S(=O)(=O)N1CCC2(CC1)N=C(c1cccc(C(F)(F)F)c1)NC2=O` (stereo in doubt) [Compound 221, 8-{(E)-2-[4-((R)-2-hydroxymethyl-5-oxo-pyrrolidin-1-yl)-2-methyl-phenyl]-ethenesulfonyl}-2-(3-trifluoromethyl-phenyl)-1,3,8-triaza-spiro[4.5]dec-1-en-4-one], the “cAMP production activity (%)” value was determined as 103%.

As for `O=C1NC(C2CCCCC2)=NC12CCN(S(=O)(=O)c1cccc(Cl)c1)CC2` [Compound 1, 8-(3-Chloro-benzenesulfonyl)-2-cyclohexyl-1,3,8-triaza-spiro[4.5]dec-1-en-4-one], the “cAMP production activity (%)” value came to 42%.

For the compound `O=C1NC(c2ccncc2)=NC12CCN(S(=O)(=O)c1cccc(Cl)c1)CC2` [Compound 2, 8-(3-chloro-benzenesulfonyl)-2-pyridin-4-yl-1,3,8-triaza-spiro[4.5]dec-1-en-4-one], the “cAMP production activity (%)” value came out at 1.0%. The same measure for `CCCC1=NC2(CCN(S(=O)(=O)c3cccc(Cl)c3)CC2)C(=O)N1` [Compound 3, 8-(3-chloro-benzenesulfonyl)-2-propyl-1,3,8-triaza-spiro[4.5]dec-1-en-4-one]: 20%; for `CC(C)C1=NC2(CCN(S(=O)(=O)c3cccc(Cl)c3)CC2)C(=O)N1` [Compound 4, 8-(3-chloro-benzenesulfonyl)-2-isopropyl-1,3,8-triaza-spiro[4.5]dec-1-en-4-one]: 11%. Next, `COc1cccc(C2=NC3(CCN(S(=O)(=O)c4cccc(Cl)c4)CC3)C(=O)N2)c1` [Compound 5, 8-(3-chloro-benzenesulfonyl)-2-(3-methoxy-phenyl)-1,3,8-triaza-spiro[4.5]dec-1-en-4-one]: 2.5%; `O=C1NC(c2cccc(Cl)c2)=NC12CCN(S(=O)(=O)c1cccc(Cl)c1)CC2` [Compound 6, 8-(3-chloro-benzenesulfonyl)-2-(3-chloro-phenyl)-1,3,8-triaza-spiro[4.5]dec-1-en-4-one]: 4.2%.

For the compound `O=C1NC(Cc2ccccc2)=NC12CCN(S(=O)(=O)c1cccc(Cl)c1)CC2` [Compound 7, 2-benzyl-8-(3-chloro-benzenesulfonyl)-1,3,8-triaza-spiro[4.5]dec-1-en-4-one], the “cAMP production activity (%)” value is 13%. Take `CC1=NC2(CCN(S(=O)(=O)c3cccc(Cl)c3)CC2)C(=O)N1` [Compound 8, 8-(3-chloro-benzenesulfonyl)-2-methyl-1,3,8-triaza-spiro[4.5]dec-1-en-4-one]: the “cAMP production activity (%)” value is on record as 2.6%. For `O=C1NC(c2ccccc2-c2ccccc2)=NC12CCN(S(=O)(=O)c1cccc(Cl)c1)CC2` [Compound 10, 2-biphenyl-2-yl-8-(3-chloro-benzenesulfonyl)-1,3,8-triaza-spiro[4.5]dec-1-en-4-one], the “cAMP production activity (%)” value was found to be 2.4%. For `Cc1ccccc1C1=NC2(CCN(S(=O)(=O)c3cccc(Cl)c3)CC2)C(=O)N1` [Compound 11, 8-(3-chloro-benzenesulfonyl)-2-o-tolyl-1,3,8-triaza-spiro[4.5]dec-1-en-4-one], the “cAMP production activity (%)” value worked out at 16%. Next, `O=C1NC(c2ccc(C(F)(F)F)cc2)=NC12CCN(S(=O)(=O)c1cccc(Cl)c1)CC2` [Compound 12, 8-(3-chloro-benzenesulfonyl)-2-(4-trifluoromethyl-phenyl)-1,3,8-triaza-spiro[4.5]dec-1-en-4-one]: 12%; `O=C1NC(c2cccc(OC(F)(F)F)c2)=NC12CCN(S(=O)(=O)c1cccc(Cl)c1)CC2` [Compound 13, 8-(3-chloro-benzenesulfonyl)-2-(3-trifluoromethoxy-phenyl)-1,3,8-triaza-spiro[4.5]dec-1-en-4-one]: 31%.

As for `CC1(C2=NC3(CCN(S(=O)(=O)c4cccc(Cl)c4)CC3)C(=O)N2)CCCCC1` [Compound 14, 8-(3-chloro-benzenesulfonyl)-2-(1-methyl-cyclohexyl)-1,3,8-triaza-spiro[4.5]dec-1-en-4-one], the “cAMP production activity (%)” value turned out to be 38%.
